“Also recorded” adds a separate entry of the source.
Assays:
[1] = system: murine hematopoietic cell line FL5.12; test: Viability of FL5.12 cells by vital dye exclusion; format: cell-based; conditions: FL5.12 cells, 48 h, vital dye exclusion; n ≥3
Protocol: Cell culture studies: FL5.12 cells (murine hematopoetic cells originally obtained from Craig Thompson, Memorial Sloan Kettering Cancer Center) were maintained at 0.1-0.5 million/ml in RPMI 1640 (Mediatech) supplemented with 10% fetal calf serum (FCS, Sigma-Aldrich), 10 mM Hepes (Mediatech), 500 pg/ml recombinant IL-3 (cat #575502, Biolegend), 55 μM β-mercaptoethanol (Sigma-Aldrich), 2 mM L-glutamine (Mediatech), and antibiotics. Cells were screened for Mycoplasma every 3 months using the Look-Out Mycoplasma PCR Detection kit (cat #MP0035, Sigma).
IC50 values were calculated using GraphPad Prism (GraphPad Software, Inc, La Jolla, Calif.).

PP2A = PP2A phosphatase activity; format: biochemical, murine; conditions: PP2A immunoprecipitated from FL5.12 cell lysates, phosphopeptide dephosphorylation
Text: Furthermore, many embodiments of the invention are directed to azacyclic constrained sphingolipid-like molecules inducing internalization of nutrient transporters via a mechanism that activates PP2A. […] Thus, activation of PP2A is very peculiar to certain sphingolipid structures. Activation of PP2A by FTY720 and SH-BC-893 also stimulated vacuolation, and as the PP2A inhibitors calyculin A and SV40 small t antigen, each blocked this effect (FIG. 59C). Of note, YM201636-induced vacuolation was unaffected by PP2A inhibition (FIG. 60B). In addition, inhibiting PP2A restored PIKfyve to the proper location within vacuoles in cells treated with FTY720 or SH-BC-893 (FIG. 57D).
PP2A phosphatase activity. PP2A activity was measured using a PP2A immunoprecipitation phosphatase assay kit (EMD Millipore). Briefly, the catalytic subunit of PP2A was immunoprecipitated from FL5.12 cell lysates with 4 μg anti-PP2A, C subunit. After four washes, the activity of immunoprecipitated PP2A was assessed by dephosphorylation of the phosphopeptide according to the manufacturer's instructions in the presence or absence of C2-ceramide, dihydro-C2-ceramide, FTY720, SH-BC-893, or calyculinA.

FL5.12 cells = test: Vacuolation assay; format: cell-based, murine; design: key to Vacuolation score: 0-100 score: (3×%cat3+2×%cat2+1×%cat1)/3; cells graded 0-3 for vacuoles; conditions: FL5.12 cells
Protocol: In an exemplified study, nutrient transporter down-regulation was monitored by quantifying surface levels of the amino acid transporter-associated protein, CD98, by flow cytometry. Vacuolation was scored in a range from 0 to […], as determined by a vacuolation assay described in greater detail in the Materials and Methods section below.
Vacuolation assay: Cells were evaluated at 100× using brightfield microscopy and a Nikon TE2000-S fluorescence microscope equipped with DIC filters. Vacuolation was quantified after a 3 h incubation period in 2.5 μM compound except where otherwise indicated. To calculate a vacuolation score, vacuolation severity in at least 15 individual cells/experiment was assessed qualitatively. Scores were assigned to individual cells as follows: 0=no vacuoles, 1=very small vacuoles, 2=multiple well-defined vacuoles, 3=multiple large vacuoles. To calculate the vacuolation score associated with a compound, the following formula was used: vacuolation score=[(3×% cells in category 3)+(2×% cells in category 2)+(1×% cells in category 1)]/3.
The score is divided by 3 so that a compound with 100% of its cells in category 3 would have a vacuolation score of 100. Three independent experiments were conducted and the vacuolation scores averaged to generate a mean+/−SEM. All cells were scored by one lab member after confirming that a blinded individual scored 5 compounds with similar results.

- PP2A activation (PP2A): does not activate PP2A
Structure (SMILES): CCCCCCCCCCCCCCC[C@@H](O)[C@H](CO)NC(C)=O [Compound 110, dihydro-C2-ceramide, reference compound]
- IC50 (μM) [95% CI] [1]: failed to kill cells; also recorded: Cytostatic
- Vacuolation score (FL5.12 cells; 3 h in 2.5 μM compound except where otherwise indicated, mean ± SEM, n ≥3): 0
- vacuolation (in words) (FL5.12 cells; at any dose / highest dose tested): caused no vacuolation
